Measured values published in ChEMBL document CHEMBL1201862, “PubChem BioAssay data set” (2004).
The source made the active and inactive calls.

Columns and labels:
[1] = P. falciparum Dd2 growth inhibitors, dose response, SYBR Green, dry powder samples (AID 1159566); format: functional, cell-based;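 also: potency for growth inhibition with lower SYBR green DNA signal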
[2] = P. falciparum Dd2 growth inhibitors, dose response, SYBR Green, cherry-picked samples (AID 1159567); format: functional, cell-based
[3] = P. falciparum ATP4 D1247Y mutant growth inhibitors, dose response, NITD609-resistant line, SYBR Green, dry powder (AID 1159571); format: functional, cell-based;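 also: parasites synchronized at ring stage by sorbitol before testing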
[4] = HepG2 cell cytotoxicity, dose response, cytotoxicity control, plate reader, dry powder samples (AID 1159569); format: functional, cell-based;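 also: inhibitor potency with signal falling toward the positive control level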
[5] = P. falciparum Dd2 growth inhibitors, dose response, SYBR Green, dry powder samples, set 9 (AID 1159568); format: functional, cell-based
[6] = P. falciparum 3D7-ScDHODH growth inhibitors, dose response, SYBR Green, dry powder samples (AID 1159570); format: functional, cell-based;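 also: parasite growth measured after 72 hours of compound exposure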
[7] = inhibitors of Vif binding to APOBEC3G peptide, primary screen, biochemical, TR-FRET, GST-Vif 1-94, biotin-A3G peptide, dose response retest (AID 1117319); format: functional;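 also: TR-FRET signal of purified GST-Vif binding a biotinylated A3G peptide; inhibitors lower the FRET signal by blocking Vif and A3G binding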
[8] = RKO cell viability reduction, dose response, CellTiter-Glo luminescence (AID 1117322); format: functional
[9] = HCT116 cell viability decrease, GSK3B pretreatment – CellTiter-Glo, IC50, dose response (AID 1117339); format: functional; conditions: HCT-116
[10] = cytotoxicity toward Colo320 cells – cell-based, CellTiter-Glo luminescence, IC50, dose response (AID 1117334); format: functional; conditions: COLO 320
[11] = cytotoxicity toward HT-29 cells – cell-based, CellTiter-Glo luminescence, IC50, dose response (AID 1117330); format: functional
[12] = SNU-C1 cell viability reduction, dose response, CellTiter-Glo luminescence (AID 1117323); format: functional, cell-based
[13] = cytotoxicity toward HCT116 cells – cell-based, CellTiter-Glo luminescence, IC50, dose response (AID 1117332); format: functional; conditions: HCT-116
[14] = CellTiter-Glo luminescent dose response of DLD-1 viability loss (AID 1117352); format: functional
[15] = Concentration-dependent survival of SW480 colon cancer line, luminescence detection with CellTiter-Glo, half-maximal inhibitory concentration (AID 1117338); format: functional
[16] = target: G-protein coupled receptor 183 (Homo sapiens, UniProt P32249); test: SAR confirmation of small molecule antagonists of the EBI2 receptor via a luminescent beta-arrestin assa.; format: functional
G-protein coupled receptor 183, sequence (P32249 whole entry): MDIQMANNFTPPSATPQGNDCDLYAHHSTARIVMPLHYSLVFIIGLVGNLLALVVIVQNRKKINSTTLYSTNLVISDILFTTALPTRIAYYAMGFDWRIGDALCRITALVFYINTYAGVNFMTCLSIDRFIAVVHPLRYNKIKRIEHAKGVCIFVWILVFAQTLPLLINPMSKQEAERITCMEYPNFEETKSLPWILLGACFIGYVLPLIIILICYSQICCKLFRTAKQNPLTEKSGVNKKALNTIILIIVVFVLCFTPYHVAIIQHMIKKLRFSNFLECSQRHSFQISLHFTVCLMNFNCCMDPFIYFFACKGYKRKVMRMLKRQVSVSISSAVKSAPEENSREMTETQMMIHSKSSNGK

[17] = target: Aryl hydrocarbon receptor (Homo sapiens, UniProt P35869); test: Luminescence-based cell-based high throughput dose response assay for activators of the Aryl Hydrocarbon Receptor (AHR). [Related pubchem assays: 2796 (Primary screen (AHR activators in singlicate)), 2845 (Confirmation screen (AHR activators in triplicate)), 434939 (Counterscreen (PXR activators in triplicate)), 2804 (Summary (AHR activators))]; format: ADME
Aryl hydrocarbon receptor, sequence (P35869 whole entry): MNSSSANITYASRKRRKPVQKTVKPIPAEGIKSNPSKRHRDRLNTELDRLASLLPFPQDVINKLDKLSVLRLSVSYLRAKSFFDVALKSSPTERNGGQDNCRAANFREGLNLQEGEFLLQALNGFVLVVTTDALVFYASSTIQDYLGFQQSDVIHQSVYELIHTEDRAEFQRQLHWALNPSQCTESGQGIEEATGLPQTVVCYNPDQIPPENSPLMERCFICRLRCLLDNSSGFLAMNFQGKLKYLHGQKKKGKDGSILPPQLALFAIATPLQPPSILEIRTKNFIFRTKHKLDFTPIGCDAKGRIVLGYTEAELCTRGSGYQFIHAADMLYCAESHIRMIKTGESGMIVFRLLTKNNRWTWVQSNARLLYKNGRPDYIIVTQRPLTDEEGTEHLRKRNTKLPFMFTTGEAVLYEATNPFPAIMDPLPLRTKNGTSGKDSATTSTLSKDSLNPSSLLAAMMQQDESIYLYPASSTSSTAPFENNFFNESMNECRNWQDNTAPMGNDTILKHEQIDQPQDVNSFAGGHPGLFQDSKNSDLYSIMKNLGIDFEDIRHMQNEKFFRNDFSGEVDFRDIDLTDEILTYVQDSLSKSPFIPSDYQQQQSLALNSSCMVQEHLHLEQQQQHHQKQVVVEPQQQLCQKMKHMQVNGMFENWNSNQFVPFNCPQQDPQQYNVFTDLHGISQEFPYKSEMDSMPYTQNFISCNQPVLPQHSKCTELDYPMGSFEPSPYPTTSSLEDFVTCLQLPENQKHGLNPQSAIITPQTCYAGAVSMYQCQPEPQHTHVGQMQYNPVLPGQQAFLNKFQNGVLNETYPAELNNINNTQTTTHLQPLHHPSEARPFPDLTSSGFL

Streptococcus = test: Group A Streptococcus viability loss, dose response, counter-screen for streptokinase expression inhibitor project, luminescence, BacTiterGlo (AID 1915); format: functional, organism-based;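 also: potency for reduction of bacterial viability or growth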
Streptokinase A = target: T1, Streptokinase A (Streptococcus pyogenes serotype M1, UniProt P10520); test: S. pyogenes streptokinase expression inhibitors, potency, dose response, plasminogen activation absorbance, OD405 (AID 1914); format: functional, Streptococcus pyogenes M1 GAS;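 also: secreted streptokinase activity via plasminogen activation per viability signal from cell pellet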
T1 sequence (P10520 whole entry): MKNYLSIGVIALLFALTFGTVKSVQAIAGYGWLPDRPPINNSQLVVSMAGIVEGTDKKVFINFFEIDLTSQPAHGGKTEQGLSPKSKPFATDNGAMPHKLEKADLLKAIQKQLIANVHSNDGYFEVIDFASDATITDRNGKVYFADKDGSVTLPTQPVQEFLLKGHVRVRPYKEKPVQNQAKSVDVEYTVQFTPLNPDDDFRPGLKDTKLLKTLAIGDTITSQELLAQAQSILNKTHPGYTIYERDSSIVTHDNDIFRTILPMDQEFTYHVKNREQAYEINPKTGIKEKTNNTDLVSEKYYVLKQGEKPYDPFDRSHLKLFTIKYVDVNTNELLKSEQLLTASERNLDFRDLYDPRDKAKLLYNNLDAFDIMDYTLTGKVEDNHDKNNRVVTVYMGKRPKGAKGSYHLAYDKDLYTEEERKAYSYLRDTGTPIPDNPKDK

[18] = Shn3 3'UTR reporter inhibitors, dose response, cell-based, Clone20 osteoblasts, firefly luciferase, cherry-picked (AID 624132); format: functional;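 also: firefly luciferase luminescence from reporter carrying the Shn3 3'UTR in osteoblasts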
[19] = reduction of Shn3 3'UTR firefly luciferase signal, dose response, Schnurri-3 inhibitor project, cell-based, Clone20 osteoblasts, cherry-pick, set 2 (AID 720490); format: functional;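 also: actives lower the luminescence signal as inhibitors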
[20] = HepG2 cell cytotoxicity, dose response, cytotoxicity control for Shn3 inhibitor project, CellTiter-Glo, cherry-picked (AID 624134); format: functional, cell-based
[21] = Luminescence Cell-Based Dose Retest to Confirm Inhibitors of Cancer Stem Cells. [Related pubchem assays (depositor defined):AID2717, AID2721]; format: functional; conditions: Homo sapiens
[22] = system: Streptococcus sp. 'group A'; test: growth inhibition of control SK(-) GAS strain, dose response, counter-screen for streptokinase expression inhibitor project, luminescence, kanamycin, BacTiterGlo, confirmation (AID 1900); format: functional, organism-based
Protein Tat = target: T2, Protein Tat (Human immunodeficiency virus type 1 group M subtype B (isolate HXB2)(HIV-1), UniProt P04608); format: functional;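 also: tat binding to TAR RNA read out by fluorescence polarization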
T2 sequence (P04608 whole entry): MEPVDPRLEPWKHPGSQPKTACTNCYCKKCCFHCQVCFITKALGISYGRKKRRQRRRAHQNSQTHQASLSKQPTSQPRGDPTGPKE

In the case of `CCCNC(=O)N1[C@H](C#N)[C@H](c2ccc(C3=CCCCC3)cc2)[C@@H]1CO`, the AC50 [1] is reported as 0.0228 µM (active), the AC50 [2] is reported as < 0.3 µM (active) and the AC50 [3] is reported as 0.0853 µM (active). For the same molecule, the AC50 [4] was 0.601 µM (active), the AC50 [5] was 0.355 µM (active) and the AC50 [6] was 3.39 µM (active).

With `CCC(Sc1nc(O)cc(-c2ccccc2)n1)C(=O)O` (stereo not drawn) the IC50 [7] was > 100 µM (active).

For `CCCCCCCCCCCCCCCC(=O)OCC=C(C)C=CC=C(C)C=CC1=C(C)CCCC1(C)C`, the IC50 [8] was > 20 µM (inactive), the IC50 [9] was > 20 µM (inactive) and the IC50 [10] was > 20 µM (inactive). For the same molecule, the IC50 [11] was > 20 µM (inactive), the IC50 [12] was > 20 µM (inactive) and the IC50 [13] was > 20 µM (inactive). The IC50 [14] was > 20 µM (inactive) and the IC50 [15] was > 20 µM (inactive).

For `O=C(/C=C/c1ccc(F)cc1)N1CCN(S(=O)(=O)c2ccccc2)CC1`, the IC50 [16] was 0.0125 µM (active).

With `O=C(/C=C/c1ccc(Br)cc1)N1CCN(S(=O)(=O)c2ccc(Br)cc2)CC1` the IC50 [16] was 0.00166 µM (active).

For `C[C@@H]1CN([C@@H](C)CO)C(=O)c2cc(C#Cc3ccccc3)cnc2O[C@H]1CN(C)C(=O)c1ccccc1`, the AC50 [5] was 4.99 µM (active).

In the case of `O=C(Nc1cccc(Cl)c1)c1ccc(O)nn1`, the EC50 [17] is reported as 3.4 µM (active).

For `Cc1cccc(NS(=O)(=O)c2ccc(C3CCCCC3)cc2)c1`, the EC50 (Streptococcus) was 6.98 µM (active), the EC50 (Streptokinase A) was 5.02 µM (active) and the AC50 [18] was 5.13 µM (active). For the same molecule, the AC50 [19] was 4.66 µM (active), the AC50 [20] was > 70 µM (inactive) and the AC50 [21] was 5.27 µM (active). The EC50 [22] was 6.43 µM (active).

For `O=C(CSc1nnc(C2CCCCC2)n1Cc1ccccc1)NCc1ccco1`, the IC50 (Protein Tat) was > 100 µM (active) and the IC50 [7] was > 100 µM (active).
